{
  "source": "ChEMBL document CHEMBL4368904",
  "about": "(J Med Chem, 2019)",
  "key": {"[1]": {"tested_on": "Mus musculus", "experiment": "Induction of hypothermia in C57BL/6J mouse assessed as body temperature at 3 mg/kg, ip measured at 60 mins post dose (reference value: 36.3 +/- 0.8 degC)", "type": "functional"}, "[2]": {"experiment": "Fraction unbound in human plasma at 10 uM", "type": "ADME, cell-free"}, "[3]": {"target": "T1, Adenosine receptor A1 (Homo sapiens, UniProt P30542)", "T1 sequence (P30542 whole entry)": "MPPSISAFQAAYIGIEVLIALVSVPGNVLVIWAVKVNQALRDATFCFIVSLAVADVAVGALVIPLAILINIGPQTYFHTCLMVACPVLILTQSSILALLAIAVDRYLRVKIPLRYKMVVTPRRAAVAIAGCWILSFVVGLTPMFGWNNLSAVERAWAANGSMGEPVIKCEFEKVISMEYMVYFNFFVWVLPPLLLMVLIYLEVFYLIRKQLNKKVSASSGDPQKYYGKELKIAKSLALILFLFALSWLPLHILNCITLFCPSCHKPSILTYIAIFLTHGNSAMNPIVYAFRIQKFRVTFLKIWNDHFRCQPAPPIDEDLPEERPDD", "experiment": "Agonist activity at human A1A adenosine receptor expressed in CHOKI cells assessed as induction of beta-arrestin2 recruitment after 60 mins", "type": "cell-based"}, "[4]": {"target": "T2, Adenosine receptor A3 (Mus musculus) (UniProt Q61618)", "T2 sequence (whole entry)": "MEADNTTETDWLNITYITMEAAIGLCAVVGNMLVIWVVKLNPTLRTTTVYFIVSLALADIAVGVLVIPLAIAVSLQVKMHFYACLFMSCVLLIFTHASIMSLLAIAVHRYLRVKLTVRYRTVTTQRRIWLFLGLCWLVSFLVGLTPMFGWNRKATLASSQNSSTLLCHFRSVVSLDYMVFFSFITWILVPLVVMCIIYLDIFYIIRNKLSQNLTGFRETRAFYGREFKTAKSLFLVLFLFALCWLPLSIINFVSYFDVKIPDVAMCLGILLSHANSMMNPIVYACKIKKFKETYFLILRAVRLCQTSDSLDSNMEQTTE", "experiment": "Agonist activity at mouse A3AR adenosine receptor at 10 uM after 60 mins by [35S]GTPgammaS binding assay relative to (2S,3S,4R,5R)-5-(6-amino-9H-purin-9-yl)-N-ethyl-3,4-dihydroxytetrahydrofuran-2-carboxamide", "type": "functional"}, "[5]": {"experiment": "Stability in human plasma", "type": "ADME, cell-free"}, "[6]": {"target": "Cytochrome P450 1A2 (Homo sapiens, UniProt P05177)", "sequence (P05177 whole entry)": "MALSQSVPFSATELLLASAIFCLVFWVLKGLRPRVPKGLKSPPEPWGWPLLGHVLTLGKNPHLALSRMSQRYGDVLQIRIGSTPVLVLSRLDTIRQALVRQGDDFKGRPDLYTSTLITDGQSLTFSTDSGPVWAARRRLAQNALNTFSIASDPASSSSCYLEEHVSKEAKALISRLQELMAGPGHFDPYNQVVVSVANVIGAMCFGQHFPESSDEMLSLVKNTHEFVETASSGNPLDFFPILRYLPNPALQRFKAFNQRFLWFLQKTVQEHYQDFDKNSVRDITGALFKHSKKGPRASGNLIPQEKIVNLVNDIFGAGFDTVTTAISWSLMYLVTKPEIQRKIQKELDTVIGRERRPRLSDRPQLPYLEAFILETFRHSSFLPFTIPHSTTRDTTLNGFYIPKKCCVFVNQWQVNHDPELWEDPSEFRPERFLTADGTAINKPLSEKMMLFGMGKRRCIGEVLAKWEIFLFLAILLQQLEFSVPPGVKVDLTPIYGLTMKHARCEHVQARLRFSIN", "experiment": "Inhibition of human CYP1A2", "type": "ADME"}, "[7]": {"experiment": "Stability in mouse plasma", "type": "ADME, cell-free"}, "[8]": {"tested_on": "Mus musculus", "experiment": "Induction of hypothermia in A3AR knock out C57BL/6J mouse assessed as effect on body temperature at 3 mg/kg, ip measured at 60 mins post dose", "type": "functional, organism-based"}, "[9]": {"tested_on": "Mus musculus", "experiment": "Induction of hypothermia in A1AR/A3AR knock out C57BL/6J mouse assessed as effect on body temperature at 3 mg/kg, ip measured at 60 mins post dose", "type": "functional, organism-based"}, "[10]": {"experiment": "Fraction unbound in rat plasma at 10 uM", "type": "ADME, cell-free"}, "[11]": {"target": "Voltage-gated inwardly rectifying potassium channel KCNH2 (Homo sapiens, UniProt Q12809)", "sequence (Q12809 whole entry)": "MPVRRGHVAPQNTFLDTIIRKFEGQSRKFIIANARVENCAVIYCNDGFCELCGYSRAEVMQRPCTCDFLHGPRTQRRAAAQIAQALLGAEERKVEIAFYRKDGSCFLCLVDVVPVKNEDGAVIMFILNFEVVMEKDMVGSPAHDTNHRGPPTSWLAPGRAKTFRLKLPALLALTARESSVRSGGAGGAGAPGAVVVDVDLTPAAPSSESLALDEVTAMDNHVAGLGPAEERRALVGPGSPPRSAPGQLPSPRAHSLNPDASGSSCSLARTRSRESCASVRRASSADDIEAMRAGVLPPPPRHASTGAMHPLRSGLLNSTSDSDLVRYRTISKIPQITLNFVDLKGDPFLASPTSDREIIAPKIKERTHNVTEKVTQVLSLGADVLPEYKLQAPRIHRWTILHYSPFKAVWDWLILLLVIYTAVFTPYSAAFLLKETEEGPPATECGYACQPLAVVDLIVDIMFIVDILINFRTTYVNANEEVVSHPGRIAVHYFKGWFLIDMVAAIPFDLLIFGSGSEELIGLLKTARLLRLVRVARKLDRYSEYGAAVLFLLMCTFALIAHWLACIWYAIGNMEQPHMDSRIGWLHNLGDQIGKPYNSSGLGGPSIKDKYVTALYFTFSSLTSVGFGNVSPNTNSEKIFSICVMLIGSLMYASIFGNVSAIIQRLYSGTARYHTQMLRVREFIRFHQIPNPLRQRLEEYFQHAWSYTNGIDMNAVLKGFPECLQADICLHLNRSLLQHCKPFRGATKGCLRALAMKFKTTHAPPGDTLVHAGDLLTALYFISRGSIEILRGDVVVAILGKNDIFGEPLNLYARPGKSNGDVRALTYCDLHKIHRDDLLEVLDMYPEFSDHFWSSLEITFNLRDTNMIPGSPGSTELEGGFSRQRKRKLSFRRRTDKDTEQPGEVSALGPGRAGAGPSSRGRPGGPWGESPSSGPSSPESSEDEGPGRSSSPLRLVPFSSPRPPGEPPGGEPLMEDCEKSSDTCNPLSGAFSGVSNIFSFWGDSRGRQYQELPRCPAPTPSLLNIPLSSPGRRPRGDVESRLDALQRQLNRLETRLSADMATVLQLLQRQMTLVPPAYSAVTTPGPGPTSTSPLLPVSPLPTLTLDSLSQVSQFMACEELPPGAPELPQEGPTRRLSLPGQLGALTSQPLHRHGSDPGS", "experiment": "Inhibition of human ERG by fluorescence polarization assay"}, "[12]": {"experiment": "Stability of the compound in simulated gastric fluid", "type": "ADME", "settings": "simulated gi fluid"}, "[13]": {"tested_on": "Mus musculus", "experiment": "Induction of hypothermia in A1AR knock out C57BL/6J mouse assessed as effect on body temperature at 3 mg/kg, ip measured at 60 mins post dose", "type": "functional, organism-based"}, "[14]": {"experiment": "Oral bioavailability in Sprague-Dawley rat at 1 to 10 mg/kg", "type": "ADME, organism-based", "settings": "in vivo"}, "[15]": {"tested_on": "Mus musculus", "experiment": "Induction of hypothermia in C57BL/6J mouse assessed as activity counts at 3 mg/kg, ip measured at 60 mins post dose (reference value: 15.5 +/- 5.5)", "type": "functional"}, "[16]": {"experiment": "Half life in Sprague-Dawley rat at 1 to 10 mg/kg, po", "type": "ADME, organism-based", "settings": "in vivo"}, "[17]": {"target": "T1, Adenosine receptor A1", "experiment": "Agonist activity at human A1A adenosine receptor expressed in HEK cell membranes incubated for 60 mins by [35S]GTPgammaS binding assay", "type": "functional"}, "[18]": {"target": "T1, Adenosine receptor A1", "experiment": "Agonist activity at human A1A adenosine receptor expressed in HEK cells assessed as inhibition of forskolin-stimulated cAMP production after 60 mins", "type": "functional, cell-based"}, "[19]": {"experiment": "Fraction unbound in mouse plasma at 10 uM", "type": "ADME, cell-free"}, "[20]": {"tested_on": "Mus musculus", "experiment": "Induction of hypothermia in C57BL/6J mouse assessed as body temperature at […], icv measured after 10 hrs post dose", "type": "functional, organism-based"}, "[21]": {"experiment": "Cmax in Sprague-Dawley rat at 3 mg/kg, po", "type": "ADME, organism-based", "set-up": "dose 3 mg/kg, route oral", "settings": "in vivo"}, "[22]": {"tested_on": "HepG2", "experiment": "Cytotoxicity against human HepG2 cells", "type": "cell-based"}, "[23]": {"target": "Cytochrome P450 2C19 (Homo sapiens, UniProt P33261)", "sequence (P33261 whole entry)": "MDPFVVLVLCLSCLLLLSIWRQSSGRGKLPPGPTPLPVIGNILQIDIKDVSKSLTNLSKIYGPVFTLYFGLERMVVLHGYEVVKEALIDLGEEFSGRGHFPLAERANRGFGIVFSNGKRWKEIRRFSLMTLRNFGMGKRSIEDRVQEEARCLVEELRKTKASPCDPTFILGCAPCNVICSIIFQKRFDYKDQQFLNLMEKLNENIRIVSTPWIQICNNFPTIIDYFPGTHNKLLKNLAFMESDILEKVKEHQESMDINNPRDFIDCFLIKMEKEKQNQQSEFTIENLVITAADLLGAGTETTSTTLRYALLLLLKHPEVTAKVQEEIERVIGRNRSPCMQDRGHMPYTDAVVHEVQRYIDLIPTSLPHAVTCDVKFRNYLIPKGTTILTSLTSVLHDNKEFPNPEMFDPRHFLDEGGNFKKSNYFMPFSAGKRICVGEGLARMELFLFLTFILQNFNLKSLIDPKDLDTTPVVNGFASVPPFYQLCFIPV", "experiment": "Inhibition of human CYP2C19", "type": "ADME"}, "[24]": {"experiment": "Stability in rat plasma", "type": "ADME, cell-free"}, "[25]": {"experiment": "Stability of the compound in simulated intestinal fluid", "type": "ADME", "settings": "simulated gi fluid"}},
  "note": "Activity calls are given as the source filed them. No cut-off for these calls is given here.",
  "data": [
    {"smiles": "OC[C@H]1O[C@@H](n2cnc3c(NC(C4CCC4)C4CCC4)ncnc32)[C@H](O)[C@@H]1O", "values": [
      {"measurement": "T", "setting": "[1]", "result": 33, "unit": "°C"},
      {"measurement": "Fu", "setting": "[2]", "result": 6.05, "unit": "%"},
      {"measurement": "EC50", "setting": "[3]", "result": 209, "unit": "nM"},
      {"measurement": "Emax", "setting": "[4]", "result": 70, "unit": "%"},
      {"measurement": "Stability", "setting": "[5]", "result": "Stable"},
      {"measurement": "inhibition (INH)", "setting": "[6]", "result": "Not Active"},
      {"measurement": "Stability", "setting": "[7]", "result": "Stable"},
      {"measurement": "Activity", "setting": "[8]", "result": "Active"},
      {"measurement": "Activity", "setting": "[9]", "result": "inactive"},
      {"measurement": "Fu", "setting": "[10]", "result": 14.6, "unit": "%"},
      {"measurement": "IC50", "setting": "[11]", "result": "> 30000", "unit": "nM"},
      {"measurement": "Stability", "setting": "[12]", "result": "Stable"},
      {"measurement": "Activity", "setting": "[13]", "result": "inactive"},
      {"measurement": "bioavailability", "setting": "[14]", "result": "31 to 43", "unit": "%"},
      {"measurement": "Activity", "setting": "[15]", "result": 6.6},
      {"measurement": "half-life", "setting": "[16]", "result": "0.9 to 1.3", "unit": "h"},
      {"measurement": "EC50", "setting": "[17]", "result": 28, "unit": "nM"},
      {"measurement": "IC50", "setting": "[18]", "result": 0.14, "unit": "nM"},
      {"measurement": "Fu", "setting": "[19]", "result": 20.6, "unit": "%"},
      {"measurement": "Activity", "setting": "[20]", "result": "Active"},
      {"measurement": "Cmax", "setting": "[21]", "result": 121, "unit": "ng/mL"},
      {"measurement": "Activity", "setting": "[22]", "result": "Non-Toxic"},
      {"measurement": "inhibition (INH)", "setting": "[23]", "result": "Not Active"},
      {"measurement": "Stability", "setting": "[24]", "result": "Stable"},
      {"measurement": "Stability", "setting": "[25]", "result": "Stable"}
    ]}
  ]
}
